Key:
[1] = test system: Stat3; experiment: IL-6-induced phosphorylation of Stat3 (tyrosine-705, serine-727) in HepG2 cells, immunoprecipitation/Western blot; type: cell-based, human; details: HepG2, IL-6 50 ng/ml; all concentrations tested, up to 16 μg/ml, equivalent to 165 μM
Description: (§1) A crucial step in IL-6-dependent intracellular signal transduction is the phosphorylation of tyrosine-705 in Stat3 and tyrosine-701 in Stat1. […] However, inhibitors which inhibit the Stat3 and Stat1 phosphorylation also have crucial effects on other signal cascades, and therefore pharmaceutically usable inhibitors of IL-6-dependent gene expression should, in the concentration range in which they display their pharmacological effect, affect the Stat3 or Stat1 phosphorylation only slightly or not at all.
(§2) Seed out HepG2 cells in Petri dishes (diameter: 10 cm) (OptiMEM medium with 10% fetal calf serum and penicillin/streptomycin (100 iu) cell density: 5×10^5 cell/ml). Incubate in a moist atmosphere with 5% CO2 at 37° C. for 24 h. Replace medium by fresh OptiMEM medium with 0.5% fetal calf serum and penicillin/streptomycin (100 iu) and incubate for a further 48 h. Replace medium by fresh OptiMEM medium with 0.5% fetal calf serum and penicillin/streptomycin (100 iu), add test substances in various concentrations, and incubate for 60 min. 5 μl of the substances dissolved in ethanol, or only ethanol (controls), were added per mixture (10 ml). Induce cells by adding IL-6 (final concentrations 50 ng/ml).
(§3) After 20 min. remove medium and wash cell lawn twice wtih 1.5 ml of ice-cold PBS (137 mM NaCl, 2.7 mM KCl, 8.1 mM Na2HPO4×2H2O, 1.5 mM KH2PO4) each time. […]

[2] = test system: Stat1; experiment: IL-6-induced tyrosine-701 phosphorylation of Stat1 in HepG2 cells, immunoprecipitation/Western blot; type: cell-based, human; details: HepG2, IL-6 50 ng/ml; all concentrations tested, up to 16 μg/ml, equivalent to 165 μM
Description: as §1, §2, §3

C[C@H]1C=C2C(=O)O[C@H]3CC[C@@H](C1)[C@@]23O [galiella lactone]
effect on the phosphorylation of Stat3 [1]: no effect
effect on the phosphorylation of Stat1 [2]: no effect
